Data set [1] has as its system M5076 tumour, ovarian cancer (reticulum cell sarcoma). Description: Tumour growth inhibition, M5076 tumour transplanted i.m. In kind it is in vivo, BDF1 mice. Particulars: 400 mg/kg body weight, intraperitoneal, days of treatment 1-11. An excerpt:
(§1) Pure strain NMRI mice (age 6-8 weeks) from our inbred colony were used for transplanting MAC (murine colon cancer) tumours, M5076 reticulum cell sarcoma (ovarian) were transplanted in BDF1 mice purchased from Harlan, Bicester, U.K. Animals were fed on RM3E diet (Lillco-England) and water ad libitum.
(§2) Approximately 2×2 mm of MAC13 tumour fragments were transplanted subcutaneously in the inguinal region via a trocar while the M5076 was homogenised and 1×10^6 cells transplanted intramuscularly in the inguinal region. Tumour bearing mice were randomised in groups of 5-7 animals per group. Treatment commenced one day after transplant for M5076 and two days for MAC13. Untreated or vehicle controls were included. Daily weights were recorded. Chemotherapy effects were assessed on day 14 or thereabouts depending on the tumour sizes and condition of the animals. Mice were killed and the effects of the chemotherapy were assessed by the differences in tumour weights and expressed as: % T/C, i.e. inhibition=100-Treated weight/Control weight×100% Body weight changes were recorded in order to assess toxicity. MAC15A

Data set [2] concerns MAC 13 tumour, murine colon cancer. In words: Tumour growth inhibition, MAC 13 tumour transplanted s.c. Format: in vivo, NMRI mice. Particulars: 400 mg/kg body weight, intraperitoneal, days of treatment 1-5.
Source text: as §1, §2

The test system of data set [3] is MAC15 tumour, murine colon cancer. Description: Tumour growth inhibition, MAC15 tumour transplanted s.c. In kind it is in vivo, NMRI mice. The conditions noted are these: intraperitoneal; for Tumour weight: individual animals. The method, then: as §1
The tumour is routinely passaged as an ascites. Approximately 2×10^5 cells were transplanted subcutaneously in saline in a volume of 0.2 ml. Mice were randomised in groups of 5-7 animals per group. Untreated or vehicle controls were included. Treatment commenced two days after transplant. Body weight was recorded daily. The effects of chemotherapy were assessed between 7-9 days after transplant. Mice were killed and the effects measured by the differences in tumour weights and expressed as: % T/C, i.e. […] Body weight changes were recorded in order to assess toxicity.

In data set [4] the test system is H460 non-small cell lung cancer human xenograft. In words: Antitumour test, H460 NSCLC human xenograft. Particulars: 500 mg/kg, i.p. days 0-4. In kind it is in vivo, Nu nude mice. The method, then: (§3) Fragments of the non-small cell lung cancer, H460, and DLD-1 colon cancer human xenografts were transplanted sub-cutaneously in both flanks of 14 female Nu nude mice from an inbred colony (B7K Universal, Hull, UK). Mice received CRM diet (SDS, WItham, UK) and water ad libitum. All experiments were carried out under a project license issued by the UK Home Office, and UKCCCR guidelines were followed throughout.
(§4) Therapy commenced once tumours had grown to a sufficient size to be measured accurately (minimum 4 mm×4 mm), which was 10 days for H460 and 19 days for DLD-1. 10 tumours grew sufficiently to use in 7 mice for both the test and untreated groups.
In the case of H460, the compound of Example 4 was administered at a concentration of 500 mg/kg body weight/day, intraperitoneally (i.p.), daily for 5 days (designated days 0-4). Animals were monitored daily for any toxicity effects, and tumours were measured, and weights recorded daily over the period of therapy and then on day 7 (untreated and test groups), and day 8 (test group). On day 7 for the untreated group, and day 8 for the test group, the largest tumour diameter was greater than the maximum permitted 17 mm, and subjects were then euthenised by UK Home Office Schedule 1 methods.
(§5) In both cases tumour volumes were assessed by caliper measurements of 2 perpendicular diameters and the volumes estimated using the following equation: Volumes−(a^2×b)/2, where a is the smaller, and b the larger diameter of the two. The effects of the therapy were determined from the difference in tumour volume-doubling time between treated and control groups, and the significance of any tumour growth delay determined using the Mann-Whitney U Test.
For orientation: A xenograft is tissue or cells of one species grown in another, often human tumour cells in immunodeficient mice.

For data set [5], the system named is DLD-1 colon cancer human xenograft. Description: Antitumour test, DLD-1 colon cancer human xenograft. The conditions noted are these: 500 mg/kg, i.p. days 0-4. In kind it is in vivo, Nu nude mice. The procedure: as §3, §4
[…], and assessing tumour growth compared to a control untreated group until the tumours have reached the maximum permitted size (day 16 control and tested group).
as §5

The mark [6] stands for this setting: 300 mg/kg body weight, days of treatment 1-5.
The mark [7] stands for this setting: 400 mg/kg body weight, days of treatment 1-5.
[8] abbreviates: RTV2 = relative tumour volume doubling.

Experimental findings from US7750181B2, “Antiproliferative agents” (EPX Research Limited, priority 2002, dated 2010) are described below.

Values joined by “and” are separate entries in the source; they are usually repeats but may differ in a detail not shown here. Equal values may be shown once.

On to `CN(C=O)C(=O)/C(Cl)=C(/Cl)C(=O)O` [Example 3, (Z)-2,3-dichloro-4-[N-formyl-N-methylamino]-4-oxo-but-2-enoic acid], for which the “% Tumour growth inhibition” value turned out to be 97% in data set [1], 92% in data set [2], 68% in data set [3] (setting [6]) and 81% in data set [3] (setting [7]). For the same compound, the Mean tumour weight in data set [1] is 0.008 g; in data set [2] it was 0.031 g; in data set [3] (setting [6]), 0.195 g; in data set [3] (setting [7]), 0.117 g. In addition, the “Tumour weight” value in data set [1] (individual animals, 400 mg/kg) is 0 g (5×) and 0.052 g; in data set [2] (individual animals, 400 mg/kg) it was 0.053 g and 0.045 g and 0.030 g and 0.023 g and 0.0 g and 0.036 g; in data set [3] (300 mg/kg body weight, days of treatment 1-5, 300 mg/kg), 0.194 g and 0.201 g and 0.190 g and 0.176 g and 0.214 g; in data set [3] (400 mg/kg body weight, days of treatment 1-5, 400 mg/kg) it was 0.074 g and 0.094 g and 0.190 g and 0.096 g and 0.132 g.
Regarding `CN1C(=O)C(Cl)=C(Cl)C(=O)C1O` (centres unmarked) [Example 4, 3,4-dichloro-6-hydroxy-1-methyl-2,5-dioxo-1.6-dihydropyridine], the “Maximum % weight loss” value in data set [4] was found to be 6.9%; in data set [5] it was 4.3%. In addition, the “Median time RTV2” value is listed as 6.4 days in data set [4] and 9.8 days in data set [5]. For the same compound, the “Mean time to RTV2” value worked out at 6.2 days in data set [4] (setting [8]) and 9.9 days in data set [5] (setting [8]). For the same compound, the “Growth delay” value amounted to 3.9 days in data set [4] (versus untreated controls) and 6.7 days in data set [5] (versus untreated controls). Besides, the “% Tumour growth inhibition” value in data set [3] (500 mg/kg body weight, day 1-5) was found to be 86%. This compound also yielded a Mean tumour weight in data set [3] (500 mg/kg body weight, day 1-5) of 0.056 g. Also, the “Tumour weight” value in data set [3] (500 mg/kg body weight, day 1-5, 500 mg/kg) is 0.076 g and 0.033 g and 0.0 g (3×) and 0.090 g and 0.060 g and 0.134 g and 0.114 g.
